# Test results from patent US12642270B2, “Substituted thiophene carboxamides, thiophene carboxylic acids and derivatives thereof” (Bayer Aktiengesellschaft, priority 2019, dated 2026).
# Test: Log P by HPLC on reversed phase columns (EEC directive 79/831 Annex V.A8)
# Assay type: physicochemical
# Method in brief: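 Reversed-phase HPLC per EEC 79/831 Annex V.A8, LC-UV with 10→95% acetonitrile linear gradient; eluent [a] 0.1% formic acid (acidic), [b] 0.001 M ammonium acetate (neutral), [c] 0.1% phosphoric acid (acidic). Calibrated with C3–C16 straight-chain alkan-2-ones, linear interpolation of retention times; multiple values joined by "+".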
SMILES,LogP (method [a]),LogP (method marked [a])
CCOC(=O)C(CCSC)NC(=O)c1cc(Cl)c(Br)s1 (stereo not shown) [1.0237],3.59^[a],
CCOC(=O)C(CCSC)NC(=O)c1cc(Br)c(Cl)s1 (stereo not shown) [1.0238],3.65^[a],
COC(=O)CNC(=O)c1cc(Cl)c(Br)s1 [1.0239],2.23^[a],
COC(=O)CNC(=O)c1cc(Br)c(Cl)s1 [1.0240],2.36^[a],
COC(=O)CNC(=O)c1sc(C#N)c(Br)c1C [1.0241],2.14^[a],
CCOC(=O)C(CCSC)NC(=O)c1sc(C#N)c(Br)c1C (stereo not shown) [1.0242],3.34^[a],
COC(=O)C1(NC(=O)c2sc(C#N)c(Br)c2C)CC1 [1.0243],2.26^[a],
CCOC(=O)C1(NC(=O)c2sc(C#N)c(Br)c2C)CCC1 [1.0244],3.07^[a],
CCOC(=O)C(CC(C)C)NC(=O)c1sc(C#N)c(Br)c1C (stereo not shown) [1.0245],3.85^[a],
O=C(O)CNC(=O)c1cc(Cl)c(Br)s1 [1.0247],1.79^[a],
O=C(O)CNC(=O)c1cc(Br)c(Cl)s1 [1.0248],1.81^[a],
Cc1c(C(=O)NCC(=O)O)sc(C#N)c1Br [1.0249],1.61^[a],
Cc1c(C(=O)NC2(C(=O)O)CC2)sc(C#N)c1Br [1.0250],1.84^[a],
CCSC(=O)C1(NC(=O)c2sc(Cl)c(Cl)c2C)CC1 [1.0251],4.08^[a],
CCSC(=O)C1(NC(=O)c2sc(Br)c(Cl)c2C)CC1 [1.0252],3.74^[a],
CCSC(=O)C1(NC(=O)c2sc(Cl)c(Br)c2C)CC1 [1.0253],3.77^[a],
Cc1c(C(=O)NC(C(=O)O)C2CC2)sc(Br)c1Cl (stereo not shown) [1.0254],2.64^[a],
Cc1c(C(=O)NC(C(=O)O)C2CC2)sc(Cl)c1Br (stereo not shown) [1.0255],2.67^[a],
NC(=O)CC(NC(=O)c1sc(Br)c(Br)c1F)C(=O)O (stereo not shown) [1.0256],1.66^[a],
CCOC(=O)C(C#N)NC(=O)c1sc(Br)c(Br)c1F (stereo not shown) [1.0257],3.07^[a],
CCOC(=O)C1(NC(=O)c2sc(C#N)c(Cl)c2C)CC1 [1.0258],2.57^[a],
COC(=O)C(NC(=O)c1cc(Cl)c(Br)s1)C1CC1 (stereo not shown) [1.0259],3.01^[a],
COC(=O)C(NC(=O)c1cc(Br)c(Cl)s1)C1CC1 (stereo not shown) [1.0260],3.07^[a],
COC(=O)C(NC(=O)c1sc(C#N)c(Br)c1C)C1CC1 (stereo not shown) [1.0261],2.75^[a],
COC(=O)C(NC(=O)c1sc(Br)c(Br)c1I)C1CC1 (stereo not shown) [1.0262],3.81^[a],

SMILES,LogP (method [a]),LogP (method marked [a])
COC(=O)C(NC(=O)c1sc(Cl)c(Cl)c1Br)C1CC1 (stereo not shown) [1.0263],3.84^[a],
COC(=O)C(NC(=O)c1sc(Br)c(Br)c1Cl)C1CC1 (stereo not shown) [1.0264],3.84^[a],
O=C(NC1(C(=O)O)CC1)c1sc(Cl)c(Br)c1Br [1.0265],2.41^[a],
CCOC(=O)C(NC(=O)c1sc(Cl)c(Br)c1C)C1CC1 (stereo not shown) [1.0266],3.81^[a],
COC(=O)C(NC(=O)c1sc(Cl)c(Br)c1C)C(=O)OC [1.0267],3.07^[a],
CCOC(=O)C(CC1CC1)NC(=O)c1sc(Cl)c(Br)c1C (stereo not shown) [1.0268],4.30^[a],
COC(=O)C(NC(=O)c1sc(Cl)c(Br)c1C)(C1CC1)C1CC1 [1.0269],3.98^[a],
CCOC(=O)C(NC(=O)c1sc(Cl)c(Br)c1C)C(=O)OCC [1.0270],,3.87^[a]
CCOC(=O)C1(NC(=O)c2sc(Cl)c(Br)c2C)CN(C(=O)OC(C)(C)C)C1 [1.0271],,4.23^[a]
CCOC(=O)C(NC(=O)c1sc(Br)c(Cl)c1C)C1CC1 (stereo not shown) [1.0272],,3.77^[a]
COC(=O)C(NC(=O)c1sc(Br)c(Cl)c1C)C(=O)OC [1.0273],,3.04^[a]
CCOC(=O)C(CC1CC1)NC(=O)c1sc(Br)c(Cl)c1C (stereo not shown) [1.0274],,4.26^[a]
COC(=O)C(NC(=O)c1sc(Br)c(Cl)c1C)(C1CC1)C1CC1 [1.0275],,3.94^[a]
CCOC(=O)C(NC(=O)c1sc(Br)c(Cl)c1C)C(=O)OCC [1.0276],,3.84^[a]
CCOC(=O)C1(NC(=O)c2sc(Br)c(Cl)c2C)CN(C(=O)OC(C)(C)C)C1 [1.0277],,4.19^[a]
COC(=O)[C@H](CCCNC(=N)N)NC(=O)c1sc(Br)c(Br)c1F [1.0278],,1.66^[a]
CCOC(=O)C(CC(C)C)NC(=O)c1sc(Cl)c(Cl)c1C#N (stereo not shown) [1.0279],,4.05^[a]
CCOC(=O)C(NC(=O)c1sc(Cl)c(Cl)c1C#N)C(C)C (stereo not shown) [1.0280],,3.77^[a]
COC(=O)C1(NC(=O)c2cc(Br)c(C#N)s2)CC1 [1.0281],,2.10^[a]
N#Cc1sc(C(=O)NC2(C(=O)O)CC2)cc1Br [1.0282],,1.70^[a]
COC(=O)C1(NC(=O)c2sc(C#N)c(Cl)c2C)CC1 [1.0283],,2.21^[a]
O=C(NC(C(=O)O)C1CC1)c1cc(Cl)c(Br)s1 (stereo not shown) [1.0284],,2.41^[a]
O=C(NC(C(=O)O)C1CC1)c1cc(Br)c(Cl)s1 (stereo not shown) [1.0285],,2.44^[a]
Cc1c(C(=O)NC(C(=O)O)C2CC2)sc(C#N)c1Br (stereo not shown) [1.0286],,2.19^[a]
O=C(NC(C(=O)O)C1CC1)c1sc(Cl)c(Cl)c1Br (stereo not shown) [1.0287],,2.95^[a]

SMILES,LogP (method [a]),LogP (method marked [a])
O=C(NC(C(=O)NC(C(=O)O)C1CC1)C1CC1)c1cc(Br)c(Cl)s1 (stereo not shown) [1.0288],,2.49^[a]
O=C(NC(C(=O)NC(C(=O)O)C1CC1)C1CC1)c1sc(Cl)c(Cl)c1Br (stereo not shown) [1.0289],,2.97^[a]
COC(=O)C1(NC(=S)c2sc(C#N)c(Cl)c2C)CC1 [1.0290],,3.04^[a]
Cc1c(C(=O)NC2(C(=O)O)CC2)sc(C#N)c1Cl [1.0291],,1.79^[a]
O=C(NC(C(=O)O)C1CC1)c1sc(Br)c(Br)c1I (stereo not shown) [1.0292],,2.97^[a]
O=C(NC(C(=O)O)C1CC1)c1sc(Br)c(Br)c1Cl (stereo not shown) [1.0293],,2.94^[a]
O=C(NC(C(=O)O)C1CC1)c1sc(Br)c(Br)c1F (stereo not shown) [1.0294],,2.64^[a]
COC(=O)CNC(=O)c1cc(Br)c(F)s1 [1.0295],,2.01^[a]
COC(=O)CNC(=O)c1sc(F)c(Cl)c1C [1.0296],,2.23^[a]
CCOC(=O)CNC(=O)c1sc(F)c(Cl)c1C [1.0297],,2.59^[a]
CCOC(=O)C1(NC(=O)c2sc(F)c(Cl)c2C)CC1 [1.0298],,2.77^[a]
CCOC(=O)C(NC(=O)c1sc(F)c(Cl)c1C)C(C)C (stereo not shown) [1.0299],,3.87^[a]
CCOC(=O)C(CCSC)NC(=O)c1sc(F)c(Cl)c1C (stereo not shown) [1.0300],,3.64^[a]
CCOC(=O)C(Cc1ccccc1)NC(=O)c1sc(F)c(Cl)c1C (stereo not shown) [1.0301],,4.15^[a]
COC(=O)CNC(=O)c1sc(C#N)c(Cl)c1C [1.0302],,2.03^[a]
CCOC(=O)CNC(=O)c1sc(C#N)c(Cl)c1C [1.0303],,2.39^[a]
CCOC(=O)C(NC(=O)c1sc(C#N)c(Cl)c1C)C(C)C (stereo not shown) [1.0304],,3.47^[a]
CCOC(=O)C(CCSC)NC(=O)c1sc(C#N)c(Cl)c1C (stereo not shown) [1.0305],,3.28^[a]
CCOC(=O)C(Cc1ccccc1)NC(=O)c1sc(C#N)c(Cl)c1C (stereo not shown) [1.0306],,3.77^[a]
COC(=O)CNC(=O)c1cc(F)c(Cl)s1 [1.0307],,1.94^[a]
CCOC(=O)C1(NC(=O)c2cc(F)c(Cl)s2)CC1 [1.0308],,2.49^[a]
CCOC(=O)C(NC(=O)c1cc(F)c(Cl)s1)C(C)C (stereo not shown) [1.0309],,3.44^[a]
CCOC(=O)C(CCSC)NC(=O)c1cc(F)c(Cl)s1 (stereo not shown) [1.0310],,3.25^[a]
CCOC(=O)CNC(=O)c1cc(Br)c(F)s1 [1.0311],,2.33^[a]
CCOC(=O)C1(NC(=O)c2cc(Br)c(F)s2)CC1 [1.0312],,2.57^[a]

SMILES,LogP (method [a]),LogP (method marked [a])
CCOC(=O)C(NC(=O)c1cc(Br)c(F)s1)C(C)C (stereo not shown) [1.0313],,3.54^[a]
CCOC(=O)C(CCSC)NC(=O)c1cc(Br)c(F)s1 (stereo not shown) [1.0314],,3.31^[a]
CCOC(=O)C(Cc1ccccc1)NC(=O)c1cc(Br)c(F)s1 (stereo not shown) [1.0315],,3.77^[a]
COC(=O)CNC(=O)c1sc(F)c(Br)c1C [1.0316],,2.31^[a]
CCOC(=O)CNC(=O)c1sc(F)c(Br)c1C [1.0317],,2.67^[a]
CCOC(=O)C1(NC(=O)c2sc(F)c(Br)c2C)CC1 [1.0318],,2.83^[a]
CCOC(=O)C(NC(=O)c1sc(F)c(Br)c1C)C(C)C (stereo not shown) [1.0319],,3.94^[a]
CCOC(=O)C(CCSC)NC(=O)c1sc(F)c(Br)c1C (stereo not shown) [1.0320],,3.67^[a]
CCOC(=O)C(Cc1ccccc1)NC(=O)c1sc(F)c(Br)c1C (stereo not shown) [1.0321],,4.23^[a]
CCOC(=O)C1(NC(=S)c2sc(Cl)c(Cl)c2Br)CC1 [1.0323],,4.51^[a]
O=C(NC1(C(=O)O)CC1)c1sc(Cl)c(Br)c1Cl [1.0324],,2.41^[a]
CCOC(=O)C1(NC(=S)c2sc(Cl)c(Br)c2Cl)CC1 [1.0325],,4.55^[a]
CCOC(=O)CN(OC)C(=O)c1sc(Br)c(Br)c1F [1.0327],,3.37^[a]
COC(=O)C1(NC(=S)c2sc(Br)c(Br)c2F)CC1 [1.0328],,3.91^[a]
O=C(O)C1(NC(=S)c2sc(Br)c(Br)c2F)CC1 [1.0329],,2.95^[a]
COC(=O)[C@H](CCC(=O)O)NC(=O)c1sc(Br)c(Br)c1F [1.0330],,2.36^[a]
CCOC(=O)C1(NC(=S)c2sc(Br)c(Br)c2F)CCC1 [1.0331],,4.74^[a]
COC(=O)C1(NC(=S)c2sc(Cl)c(Br)c2C)CC1 [1.0332],,3.71^[a]
COC(=O)C1(NC(=S)c2sc(Br)c(Br)c2Cl)CC1 [1.0333],,4.11^[a]
COC(=O)C1(NC(=S)c2sc(Cl)c(Cl)c2Br)CC1 [1.0334],,4.06^[a]
COC(=O)C1(NC(=S)c2sc(C#N)c(Br)c2C)CC1 [1.0335],,3.10^[a]
COC(=O)C1(NC(=S)c2cc(Br)c(C#N)s2)CC1 [1.0336],,3.03^[a]
O=C(NC(CC(F)F)C(=O)O)c1sc(Cl)c(Cl)c1Br (stereo not shown) [1.0337],,2.81^[a]
CCOC(=O)C1(NC(=O)c2sc(Br)c(Br)c2C(F)F)CC1 [1.0341],,3.20^[a]
N#CCNC(=O)c1sc(Cl)c(Cl)c1F [1.0342],,2.30^[a]
